Like-named read-outs stand apart in the source and are kept apart here.
Experiments:
[1] = target: protein kinases (human kinome) (Homo sapiens, UniProt Q00534); format: cell-based; conditions: for logFC CDK6: CDK6 (Q00534), direction down; for logFC of CDK6 (Q00534): down
[2] = target: protein kinases (human kinome) (Homo sapiens, UniProt P30291); format: cell-based; conditions: experiment wp084
[3] = target: extended human kinome (kinase-like proteins) (Homo sapiens, UniProt P27144); test: Whole cell quantitative proteomics: extended kinome hits
Sequence of extended human kinome (kinase-like proteins) (Homo sapiens, UniProt P27144) (P27144 whole entry): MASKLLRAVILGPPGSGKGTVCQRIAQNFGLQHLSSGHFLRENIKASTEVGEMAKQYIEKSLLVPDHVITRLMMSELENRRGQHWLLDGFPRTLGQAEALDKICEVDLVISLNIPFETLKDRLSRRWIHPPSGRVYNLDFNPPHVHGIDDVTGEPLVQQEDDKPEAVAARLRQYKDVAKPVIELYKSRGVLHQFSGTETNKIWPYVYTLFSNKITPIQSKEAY

[4] = target: T1, extended human kinome (kinase-like proteins) (Homo sapiens, UniProt Q53R41); test: as above
T1 sequence (Q53R41 1-847): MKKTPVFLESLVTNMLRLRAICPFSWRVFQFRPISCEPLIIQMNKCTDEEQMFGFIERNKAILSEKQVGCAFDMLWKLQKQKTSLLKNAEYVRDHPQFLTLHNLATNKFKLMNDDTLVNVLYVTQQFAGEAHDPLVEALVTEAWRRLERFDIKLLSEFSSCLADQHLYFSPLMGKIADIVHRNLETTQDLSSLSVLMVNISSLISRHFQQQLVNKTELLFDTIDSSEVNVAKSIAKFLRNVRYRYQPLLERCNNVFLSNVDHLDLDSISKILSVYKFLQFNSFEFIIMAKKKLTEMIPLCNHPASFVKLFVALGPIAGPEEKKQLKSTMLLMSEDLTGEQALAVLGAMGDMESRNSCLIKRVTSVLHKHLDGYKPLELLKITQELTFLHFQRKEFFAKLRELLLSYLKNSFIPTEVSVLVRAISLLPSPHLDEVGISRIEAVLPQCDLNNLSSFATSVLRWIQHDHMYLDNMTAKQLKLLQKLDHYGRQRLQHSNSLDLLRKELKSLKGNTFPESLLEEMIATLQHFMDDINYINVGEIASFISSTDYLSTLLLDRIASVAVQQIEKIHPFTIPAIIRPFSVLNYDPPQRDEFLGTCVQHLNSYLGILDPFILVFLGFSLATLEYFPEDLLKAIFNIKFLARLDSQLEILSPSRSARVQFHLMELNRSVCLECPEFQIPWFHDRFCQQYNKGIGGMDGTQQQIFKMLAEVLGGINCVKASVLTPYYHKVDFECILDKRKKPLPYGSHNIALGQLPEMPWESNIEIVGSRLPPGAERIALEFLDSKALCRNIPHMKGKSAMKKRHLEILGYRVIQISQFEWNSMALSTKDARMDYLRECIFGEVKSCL

[5] = target: protein kinases (human kinome) (Homo sapiens, UniProt P51451); format: cell-based; conditions: for logFC BLK: BLK (P51451), direction down; for logFC of BLK (P51451): down
Sequence of protein kinases (human kinome) (Homo sapiens, UniProt P51451) (P51451 whole entry): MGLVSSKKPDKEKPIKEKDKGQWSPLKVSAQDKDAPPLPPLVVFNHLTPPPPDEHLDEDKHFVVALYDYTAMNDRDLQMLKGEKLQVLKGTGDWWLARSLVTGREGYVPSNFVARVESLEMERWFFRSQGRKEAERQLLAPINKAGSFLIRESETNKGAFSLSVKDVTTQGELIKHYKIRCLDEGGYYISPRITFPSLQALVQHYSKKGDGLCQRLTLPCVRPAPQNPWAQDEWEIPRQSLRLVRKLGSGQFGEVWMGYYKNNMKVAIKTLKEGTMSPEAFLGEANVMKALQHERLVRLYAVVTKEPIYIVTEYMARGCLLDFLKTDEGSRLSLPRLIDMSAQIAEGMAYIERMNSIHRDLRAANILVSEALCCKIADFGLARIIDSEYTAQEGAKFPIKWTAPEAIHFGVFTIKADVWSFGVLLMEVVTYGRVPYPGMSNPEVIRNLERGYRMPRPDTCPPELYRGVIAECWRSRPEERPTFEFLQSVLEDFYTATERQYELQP

Sequence of protein kinases (human kinome) (Homo sapiens, UniProt Q00534) (Q00534 whole entry): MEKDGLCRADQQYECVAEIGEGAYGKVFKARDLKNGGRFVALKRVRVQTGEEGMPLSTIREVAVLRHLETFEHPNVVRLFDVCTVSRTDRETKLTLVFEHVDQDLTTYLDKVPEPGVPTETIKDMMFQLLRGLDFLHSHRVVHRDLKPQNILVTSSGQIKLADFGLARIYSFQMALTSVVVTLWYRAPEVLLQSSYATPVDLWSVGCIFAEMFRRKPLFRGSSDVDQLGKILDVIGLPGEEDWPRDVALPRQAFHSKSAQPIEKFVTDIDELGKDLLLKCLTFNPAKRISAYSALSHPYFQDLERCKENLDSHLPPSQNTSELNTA
Sequence of protein kinases (human kinome) (Homo sapiens, UniProt P30291) (P30291 whole entry): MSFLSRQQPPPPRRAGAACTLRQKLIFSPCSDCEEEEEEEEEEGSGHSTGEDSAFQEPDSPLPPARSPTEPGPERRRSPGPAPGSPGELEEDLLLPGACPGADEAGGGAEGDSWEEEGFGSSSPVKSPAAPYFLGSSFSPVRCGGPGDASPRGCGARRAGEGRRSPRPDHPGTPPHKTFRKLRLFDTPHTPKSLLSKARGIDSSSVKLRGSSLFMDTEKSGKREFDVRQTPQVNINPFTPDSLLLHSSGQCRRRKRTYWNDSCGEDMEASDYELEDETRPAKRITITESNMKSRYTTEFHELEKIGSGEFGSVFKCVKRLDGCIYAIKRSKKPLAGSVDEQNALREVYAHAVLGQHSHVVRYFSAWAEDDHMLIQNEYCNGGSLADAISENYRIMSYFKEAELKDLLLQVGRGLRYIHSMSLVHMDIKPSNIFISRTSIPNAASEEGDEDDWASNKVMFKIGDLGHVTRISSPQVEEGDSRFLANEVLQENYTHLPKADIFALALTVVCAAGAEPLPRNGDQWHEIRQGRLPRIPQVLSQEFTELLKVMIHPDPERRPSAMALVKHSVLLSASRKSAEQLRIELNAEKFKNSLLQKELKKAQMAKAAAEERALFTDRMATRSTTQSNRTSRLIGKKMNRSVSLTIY

SMILES: CC(=O)c1c(C)c2cnc(Nc3ccc(N4CCN(CCOCCOCCOCCNC(=O)COc5cccc6c5C(=O)N(C5CCC(=O)NC5=O)C6=O)CC4)cn3)nc2n(C2CCCC2)c1=O (stereo not shown) [BSJ.03.123]
- logFC CDK6 ([1]; experiment wp084): −3.058
- logFC of CDK6 (Q00534) ([1]; Experiment wp084): −3.058
- logFC of WEE1 ([2]; WEE1 P30291-1): −0.3883
- logFC WEE1 (P30291-1) [2]: −0.3883
- logFC AK4 (P27144) ([3]; experiment wp084): −0.5103
- logFC FASTKD1 (Q53R41) ([4]; experiment wp084): −0.5242

SMILES: CC(C)(C)c1nc(-c2cccc(NS(=O)(=O)c3c(F)cccc3F)c2F)c(-c2ccnc(NCCOCCNC(=O)CCOCCOCCNc3cccc4c3C(=O)N(C3CCC(=O)NC3=O)C4=O)n2)s1 (stereo not shown) [DD.03.106]
- logFC CDK6 ([1]; experiment wp047): −1.086
- logFC CDK6 ([1]; experiment wp137): −1.083
- logFC CDK6 ([1]; experiment wp147, 1 uM): −0.8934
- logFC CDK6 ([1]; experiment wp147, 2 uM): −1.348
- logFC CDK6 ([1]; experiment wp147, 4 uM): −1.159
- logFC of CDK6 (Q00534) ([1]; Experiment wp047): −1.086
- logFC of CDK6 (Q00534) ([1]; Experiment wp137): −1.083
- logFC of CDK6 (Q00534) ([1]; Experiment wp147, 1 uM): −0.8934
- logFC of CDK6 (Q00534) ([1]; Experiment wp147, 2 uM): −1.348
- logFC of CDK6 (Q00534) ([1]; Experiment wp147, 4 uM): −1.159
- logFC AK4 (P27144) ([3]; experiment wp147, 4 uM): −0.5652
- logFC FASTKD1 (Q53R41) ([4]; experiment wp147, 4 uM): −0.6262

SMILES: Cc1ccc(C(=O)Nc2ccc(CN3CCN(CCCOCCOCCOCCNC(=O)COc4cccc5c4C(=O)N(C4CCC(=O)NC4=O)C5=O)CC3)c(C(F)(F)F)c2)cc1C#Cc1cnc2cccnn12 (stereo not shown) [SB1.G.187]
- logFC BLK ([5]; experiment wp103): −2.098
- logFC BLK ([5]; experiment wp107): −1.916
- logFC of BLK ([5]; BLK P51451, experiment wp056): −2.021
- logFC of BLK (P51451) ([5]; Experiment wp056): −2.021
- logFC of BLK (P51451) ([5]; Experiment wp103): −2.098
- logFC of BLK (P51451) ([5]; Experiment wp107): −1.916
- logFC CDK6 ([1]; experiment wp103): −0.346
- logFC of CDK6 (Q00534) ([1]; Experiment wp103): −0.346
- logFC AK4 (P27144) ([3]; experiment wp056): −0.4478
- logFC FASTKD1 ([4]; Accession Q53R41, experiment wp056): −0.4811

Source: patent US20240269139A1, “COMPOUNDS FOR TARGETED PROTEIN DEGRADATION OF KINASES” (DANA-FARBER CANCER INSTITUTE, INC., priority 2020, published 2024)
